In series [1] the test system is MV4-11 cells. Briefly: MV-4-11 cell viability assay. Format: cell-based, human. As to conditions: 72 hours, Cell Titer Glo. A general note: ATP-based viability assays read luminescence as a measure of living cells.
Procedure: (§2) MV-4-11 cell line was purchased from the American Type Culture Collection (ATCC, Manassas, VA). The cells were cultured according to recommendations in IMDM cell culture media (ATCC). Exponentially growing MV-4-11 cells were plated at 1,000 cells per well in Corning 8804BC white 384-well assay plates and incubated overnight at 37° C. in a humidified 5% CO2 incubator. Compounds were transferred to the assay plate from a dose-response plate using a Pintool on a Biomek FXP Laboratory Automation Workstation (Beckman Coulter). Cytotoxicity was determined following 72 hours of incubation using Promega Cell Titer Glo reagent according to the manufacturer's recommendation. Luminescence was measured on an Envision plate reader (Perkin-Elmer).
(§3) Compounds were screened in human cancer cell lines and each cell line was cultured in the complete medium recommended by the vendor and seeded in Corning 8804BC white 384-well assay plates at density of 1,000, 1,000, 1,000, 1,500 and 7,500 cells per well, for MV4-11, HD-MB03, MB004, MB002 and MHH-CALL4 cells respectively. After overnight incubation at 37° C. in a humidified 5% CO2 incubator, cells were treated with compounds in dose-response format using a Pintool on a Biomek FXP Laboratory Automation Workstation (Beckman Coulter). […] After 72 h incubation, cell proliferation was assessed using Cell Titer-Glo (CTG) luminescent cell viability assay (Promega) according to the manufacturer's instruction. Luminescence signal was measured using an Envision plate reader (Perkin-Elmer).
The target in a further series is GSPT1 HiBiT tag protein (Homo sapiens (Human), UniProt P15170+Q96SW2). Briefly: hGSPT1 HiBiT assay. It is filed as cell-based. To be noted: read-out: GSPT1 HiBit EC50; HEK293 hGSPT1 HiBiT cells, 4 hrs incubation. The protocol:
hGSPT1 HiBiT cell line. HEK293_hGSPT1_HiBiT tagged cells were generated using CRISPR-Cas12a technology. Briefly, ˜400,000 HEK293 cells were transiently co-transfecting with precomplexed ribonuclear proteins (RNPs) consisting of […] of crRNA (IDT), 62 pmol of Cas12a protein (IDT), 3 ug of ssODN donor (IDT; AltR™ modifications), 78 pmol of electroporation enhancer (IDT), and 200 ng of pMaxGFP (Lonza). The transfection was performed via nucleofection (Lonza, 4D-Nucleofector™ X-unit) using solution P3 and program CM-130 in a small (20 ul) cuvette according to the manufacturer's recommended protocol. Five days post-nucleofection, cells were single cell sorted for GFP+(transfected) cells by FACs in 96-well plates and clonally selected. Clones were screened and verified for the desired modification via targeted deep sequencing using gene specific primers with partial Illumina adapter overhangs as previously described.^58 In brief, clonal cell pellets were harvested, lysed and used to generate gene specific amplicons with partial Illumina adapters in PCR #1. Amplicons were indexed in PCR #2 and pooled with other targeted amplicons for other loci to create sequence diversity. Additionally, 10% PhiX Sequencing Control V3 (Illumina) was added to the pooled amplicon library prior to running the sample on an Miseq Sequencer System (Illumina) to generate paired 2×250 bp reads. […] Editing construct sequences and screening primers are listed below in Table 4.
hGSPT1 HiBiT assay. […] After 4 hrs incubation, the level of GSPT1 HiBiT tag protein was evaluated using Nano-Glo® HiBiT Lytic Detection System (Promega) according to the manufacturer's instruction.
(In general: The HiBiT peptide binds its large partner to form an active luciferase.)

The target of the next series is 6×His-CRBN-DDB1 protein (Homo sapiens (Human), UniProt Q96SW2). Briefly: CRBN fluorescence polarization assay. Format: binding. The protocol: 6×His-CRBN-DDB1 protein (200 nM) and Cy5-O-Len probe (30 nM) were combined in 20 mM HEPES pH 7, 150 mM NaCl, 0.005% Tween-20 assay buffer. […] The plates were incubated in the dark for 1 hour at room temperature and then read on an Envision plate reader (PerkinElmer, Massachusetts, USA).
Sequence of 6×His-CRBN-DDB1 protein (Q96SW2 whole entry): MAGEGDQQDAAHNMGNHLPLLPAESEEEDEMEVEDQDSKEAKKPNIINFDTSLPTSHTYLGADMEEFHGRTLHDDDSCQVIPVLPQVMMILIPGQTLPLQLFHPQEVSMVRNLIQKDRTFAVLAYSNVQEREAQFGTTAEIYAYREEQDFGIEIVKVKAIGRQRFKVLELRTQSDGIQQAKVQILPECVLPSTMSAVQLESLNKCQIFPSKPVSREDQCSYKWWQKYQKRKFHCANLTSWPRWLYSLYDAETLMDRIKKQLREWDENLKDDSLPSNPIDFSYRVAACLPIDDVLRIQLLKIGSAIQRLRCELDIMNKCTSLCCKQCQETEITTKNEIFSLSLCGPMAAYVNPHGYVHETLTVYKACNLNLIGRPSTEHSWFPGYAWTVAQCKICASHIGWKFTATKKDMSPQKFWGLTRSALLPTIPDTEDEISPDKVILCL
Sequence of 6×His-CRBN-DDB1 protein (Q16531 whole entry partner): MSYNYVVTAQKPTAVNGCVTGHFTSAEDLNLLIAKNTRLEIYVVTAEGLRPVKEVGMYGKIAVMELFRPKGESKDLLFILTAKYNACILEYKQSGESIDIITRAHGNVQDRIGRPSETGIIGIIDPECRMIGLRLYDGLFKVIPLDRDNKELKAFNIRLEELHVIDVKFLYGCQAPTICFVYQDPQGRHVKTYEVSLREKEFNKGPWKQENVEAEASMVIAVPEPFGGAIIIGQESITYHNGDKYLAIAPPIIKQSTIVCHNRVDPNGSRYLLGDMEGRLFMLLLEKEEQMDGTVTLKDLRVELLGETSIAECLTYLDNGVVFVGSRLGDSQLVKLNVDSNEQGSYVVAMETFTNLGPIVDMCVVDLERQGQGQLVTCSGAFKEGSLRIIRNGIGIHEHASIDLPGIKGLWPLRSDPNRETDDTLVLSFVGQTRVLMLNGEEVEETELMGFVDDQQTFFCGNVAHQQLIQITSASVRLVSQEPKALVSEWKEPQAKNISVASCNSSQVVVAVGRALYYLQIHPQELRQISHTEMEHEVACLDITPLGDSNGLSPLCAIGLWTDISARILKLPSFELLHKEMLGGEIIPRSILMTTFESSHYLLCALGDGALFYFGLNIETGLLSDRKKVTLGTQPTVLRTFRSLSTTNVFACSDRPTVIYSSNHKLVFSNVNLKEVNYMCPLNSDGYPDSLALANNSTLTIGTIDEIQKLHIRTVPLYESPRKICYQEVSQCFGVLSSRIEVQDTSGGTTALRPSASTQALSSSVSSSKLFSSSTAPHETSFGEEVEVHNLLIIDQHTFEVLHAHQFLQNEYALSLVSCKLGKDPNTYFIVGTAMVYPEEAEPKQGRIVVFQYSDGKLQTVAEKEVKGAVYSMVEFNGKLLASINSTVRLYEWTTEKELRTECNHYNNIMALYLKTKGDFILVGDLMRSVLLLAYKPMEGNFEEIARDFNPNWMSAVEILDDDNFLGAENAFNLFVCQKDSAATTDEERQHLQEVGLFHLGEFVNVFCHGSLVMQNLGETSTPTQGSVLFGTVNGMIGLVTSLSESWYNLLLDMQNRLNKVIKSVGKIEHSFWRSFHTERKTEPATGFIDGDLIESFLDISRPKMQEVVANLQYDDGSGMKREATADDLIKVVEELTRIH
(In general: Fluorescence polarisation rises when a labelled molecule tumbles more slowly, as on binding a larger partner.)

The subject of a further series is MDCKII-MDR1 cells. Briefly: MDCKII-MDR1 permeability assay. Format: in vitro ADME. To be noted: permeability in MDCK-MDR1 cells. The protocol: High throughput […]1 permeability was performed in the Transwell® 0.4 μm polycarbonate membrane 96-well system with modified methods (Refs. 38-39). […]1 cells were maintained at 37° C. in a humidified incubator with an atmosphere of 5% CO2. The cells were cultured in 75 cm^2 flasks with Dulbecco's Modified Eagle's Medium (DMEM) containing 10% fetal bovine serum (FBS), 1% non-essential amino acids (NEAA), 100 units/ml of penicillin, and 100 μg/ml of streptomycin. The […]1 cells were seeded onto inserts at a density of 2×10^4 and 1×10^4 cells/insert separately. The medium in the wells was exchanged each other day, and the trans epithelial electrical resistance (TEER) value was measured using an epithelial volt-ohm meter (Millipore, Billerica, Massachusetts). […] For transport experiments, each cultured monolayer on the 96-well plate was washed twice with a transport buffer (HBSS/25 mM HEPES, pH 7.4). The permeability assay was initiated by the addition of each compound solution (10 μmol/L) into inserts (apical side, A) or receivers (basolateral side, B). The MDCKII-MDR1 cell monolayers were incubated for 1 hour at 37° C. Fractions were collected from receivers (if apical to basal permeability) or inserts (if basal to apical permeability), and concentrations were assessed by UPLC/MS (Waters; Milford, MA). All compounds were tested in triplicates. The A→B (or B→A) apparent permeability coefficients (Papp) of each compound were calculated using the equation, Papp=dQ/dt×1/AC0, where dQ/dt equals the flux of a drug across the monolayer, A equals the total insert well surface area, and C0 is the initial concentration of substrate in the donor compartment. The efflux ratio was determined by dividing the Papp in the B-A direction by the Papp in the A-B direction.

A short description of a further series: Aqueous solubility assay. It is filed as physicochemical. As to conditions: aqueous solubility at pH = 7.4, triplicate. As for the experimental part: Solubility assays were carried out on a Biomek FX lab automation workstation (Beckman Coulter, Inc., Fullerton, CA) using μSOL Evolution software (pION Inc., Woburn, MA). 10 μL of 10 mM compound stock (in DMSO) was added to 190 μL 1-propanol to make a reference stock plate. 5 μL from this reference stock plate were mixed with 70 μL 1-propanol and 75 μL citrate phosphate-buffered saline (PBS;isotonic) to make the reference plate, and the UV spectrum (250-500 nm) of the reference plate was read. 6 μL of 10 mM test compound stock was added to 594 μL buffer in a 96-well storage plate and mixed. The storage plate was sealed and incubated at RT for 18 h. The suspension was then filtered through a 96-well filter plate (pION Inc., Woburn, MA). 75 μL of filtrate was mixed with 75 μL 1-propanol to make the sample plate, and the UV spectrum of the sample plate was read. Calculations were carried out with μSOL Evolution software based on the area under the curve (AUC) of the UV spectrum of the sample and reference plates. All compounds were tested in triplicate.

The next series deals with human cancer cell lines. Briefly: Cell proliferation in human cancer cell lines. Format: cell-based. As to conditions: data not shown.
For the next series, the target named is IKZF1 (Homo sapiens (Human), UniProt Q13422+Q96SW2). Briefly: IKZF1 degradation by immunoblot in MV4-11 cells. Format: cell-based. As to conditions: for DC50: read-out: IKZF1 DC50, 24 h treatment. The protocol:
(§1) MV4-11 cells were seeded in 6-well plates (1×10^6 cells per well). After overnight incubation, the cells were treated with indicated concentrations for specific timepoints. […] After blocking the membrane with LI-COR TBS blocking buffer and incubation in primary antibody overnight, the corresponding protein signals were detected using IRDye secondary antibodies and Odyssey Imaging System. Image Studio Lite Ver 5.2 was used for blot quantification. […] IRDye® 800CW Goat anti-Mouse IgG Secondary Antibody and IRDye® 68ORD Goat anti-Rabbit IgG Secondary Antibody were used as secondary antibodies.

A further series deals with GSPT1 (Homo sapiens (Human), UniProt P15170+Q96SW2). As to the kind of experiment: GSPT1 degradation by immunoblot in MV4-11 cells. It is filed as cell-based. The protocol: as §1
Sequence of GSPT1 (P15170 whole entry): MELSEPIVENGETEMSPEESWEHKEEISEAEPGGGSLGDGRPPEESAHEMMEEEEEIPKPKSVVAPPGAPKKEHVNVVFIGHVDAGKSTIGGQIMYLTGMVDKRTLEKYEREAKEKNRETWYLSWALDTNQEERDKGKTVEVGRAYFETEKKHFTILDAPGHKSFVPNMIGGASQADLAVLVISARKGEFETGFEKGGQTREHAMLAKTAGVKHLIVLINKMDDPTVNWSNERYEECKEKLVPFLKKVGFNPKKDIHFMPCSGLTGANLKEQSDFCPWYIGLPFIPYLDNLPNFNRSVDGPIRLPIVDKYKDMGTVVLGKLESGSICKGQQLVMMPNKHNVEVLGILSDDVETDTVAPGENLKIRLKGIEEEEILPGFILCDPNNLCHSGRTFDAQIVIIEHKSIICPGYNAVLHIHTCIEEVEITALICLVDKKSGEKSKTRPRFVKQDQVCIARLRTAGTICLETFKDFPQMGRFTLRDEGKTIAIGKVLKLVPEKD
Sequence of GSPT1 (Q96SW2 whole entry): as the sequence (Q96SW2 whole entry) above
Sequence of GSPT1 (Q16531 whole entry partner): as the sequence (Q16531 whole entry partner) above
The next series relates to caspase 3/7. Briefly: Caspase 3/7 activity assay. Format: cell-based, human. As to conditions: MV4-11 cells, Caspase-Glo, 4, 8 and 24 hours, 10 and 100 nM.
The test system of series [2] is CRBN knockout MV4-11 cells. Briefly: Cell viability in CRBN knockout MV4-11 cells. To be noted: CRBN knockout vs wild-type MV4-11 cells. Format: cell-based, human.
Procedure: as §2
CRBN-deficient MV4:11 cells were generated using CRISPR-Cas9 technology. […] Five days post nucleofection, cells were single-cell sorted by FACs to enrich for GFP+(transfected) cells, clonally selected, and verified for the desired targeted modification via targeted deep sequencing using gene specific primers with partial Illumina adapter overhangs (hCRBN.F—5′-[sequence]-3′ (SEQID: 6) and hCRBN.R—5′-[sequence]-3′, (SEQID: 7); overhangs not shown) and analyzed using CRIS.py (Ref. 36).
Series [3] deals with MV4-11 cells. As to the kind of experiment: Lenalidomide competition assay. As to conditions: co-treatment with lenalidomide 10 μM, 72 h. Format: cell-based, human.
Procedure: as §3
In the next series the test system is cells. To be noted: Ref. 13; cited from earlier work.
Setting [4] is: CRBN FP IC50, cereblon binding, class symbols.
Where [5] appears, read: fluorescence polarization, Cy5-O-Len probe, read-out: CRBN IC50.

Read-outs that look alike come from different tables or passages of the source. Bounds are passed on as bounds.

Sequence of GSPT1 HiBiT tag protein (P15170 whole entry): as the sequence (P15170 whole entry) above
Sequence of GSPT1 HiBiT tag protein (Q96SW2 whole entry): as the sequence (Q96SW2 whole entry) above
Sequence of GSPT1 HiBiT tag protein (Q16531 whole entry partner): as the sequence (Q16531 whole entry partner) above

The term IC50 denotes the concentration that inhibits the measured activity by half. A word on the Papp: it is a coefficient for how fast a substance crosses the barrier. Higher therefore signals ready permeation. As to `O=C1CCC(N2C(=O)c3ccc(NS(=O)(=O)c4ccccc4)cc3C2=O)C(=O)N1` (centres unmarked) [Compound 20, N-(2-(2,6-dioxopiperidin-3-yl)-1,3-dioxoisoindolin-5-yl)benzenesulfonamide], the “MV4-11 EC50” value in the series with MV4-11 cells [1] is “inactive”. For the same compound, on GSPT1 HiBiT tag protein, the DC50 was more than 10000 nM. In addition, the IC50 is less than 1000 nM at 6×His-CRBN-DDB1 protein (setting [4]) and 72 nM on 6×His-CRBN-DDB1 protein (setting [5]). Further, the Papp in the series on MDCKII-MDR1 cells amounted to 3.6 ×10⁻⁶ cm/s. Also, the Sol. in the series “Aqueous solubility assay” turned out to be 71 µM.
Consider `Cc1ccc(NC(=O)NCc2ccc3c(c2)CN(C2CCC(=O)NC2=O)C3=O)cc1Cl` (centres unmarked) [CC-885, N-(3-chloro-4-methylphenyl)-N′-[[2-(2,6-dioxo-3-piperidinyl)-2,3-dihydro-1-oxo-1H-isoindol-5-yl]methyl]-urea], for which the “antiproliferative effects in cell lines” value with human cancer cell lines was “displayed antiproliferative effects in all four cell lines”.
As usually defined, the Dmax is the largest share of the target that was removed. A word on the EC50: it is the concentration giving half of the maximal effect. The compound `O=C1CCC(N2Cc3cc(CNC(=O)C(F)(F)c4ccc(Cl)cc4)ccc3C2=O)C(=O)N1` (centres unmarked) [CC-90009, 2-(4-chlorophenyl)-N-((2-(2,6-dioxopiperidin-3-yl)-1-oxoisoindolin-5-yl)methyl)-2,2-difluoroacetamide, reference compound] gave a Dmax at 10 µM at IKZF1 (MV4-11 cells, 4 hours, at 10 μM) of 55%. Moreover, the DC50 is 10 nM at IKZF1 (MV4-11 cells) and 9.9 nM on IKZF1 (MV4-11 cells, listed as CC90009). In addition, the EC50 in the series on MV4-11 cells [1] (Homo sapiens) is 62 nM. The compound further returned an apparent permeability coefficient (Papp) with MDCKII-MDR1 cells of 4.9 ×10⁻⁶ cm/s. The Sol. in the series “Aqueous solubility assay” is 77 µM.
`Cc1c(Cl)cccc1S(=O)(=O)Nc1ccc2c(c1)C(=O)N(C1CCC(=O)NC1=O)C2=O` (centres unmarked) [Compound 5, 3-chloro-N-(2-(2,6-dioxopiperidin-3-yl)-1,3-dioxoisoindolin-5-yl)-2-methylbenzenesulfonamide] had a GSPT1 protein degradation on GSPT1 (MV4-11 cells, 24 hours, at 100 nM) of 90%. Moreover, the “IKZF1 degradation at 4 hours” value at IKZF1 (MV4-11 cells, 4 hours, any concentration tested) was “did not significantly degrade IKZF1”. For the same compound, the caspase activation entry with caspase 3/7 is reported as “only observed at the 24 hour time point”. For the same compound, in series [2], the “antiproliferative activity in absence of CRBN” value was “abolished”. In addition, the apparent permeability coefficient (Papp) in the series with MDCKII-MDR1 cells is 3.6 ×10⁻⁶ cm/s. The compound further yielded a Sol. in “Aqueous solubility assay” of 64 µM. Also, in the series with MV4-11 cells [3], the “antiproliferative effect in presence of lenalidomide” value is on record as “abrogating the antiproliferative effects”.
As to `O=C1CCC(N2C(=O)c3ccc(NS(=O)(=O)c4cccc(OC(F)(F)F)c4)cc3C2=O)C(=O)N1` (centres unmarked) [Compound 2, N-(2-(2,6-dioxopiperidin-3-yl)-1,3-dioxoisoindolin-5-yl)-3-(trifluoromethoxy)benzenesulfonamide], the “effect on protein levels of GSPT1 by immunoblotting” value at GSPT1 (MV4-11 cells (FIG. 6)) is on record as “no effects”. The “selectivity window GSPT1 over IKZF1 (DC50)” value on GSPT1 (MV4-11 cells, DC50 values at 24 hours) turned out to be 30 fold. For the same compound, the “effect on protein levels of IKZF1 by immunoblotting” value at IKZF1 (MV4-11 cells (FIG. 6)) is on record as “no effects”. Besides, the IKZF1 protein abundance result on IKZF1 (MV4-11 cells, treatment over 24 hours) was “dose-dependent decrease”. The “MV4-11 EC50” value in the series on MV4-11 cells [1] was “no activity”. The DC50 at GSPT1 HiBiT tag protein is more than 10000 nM. The half-maximal inhibitory concentration (IC50) at 6×His-CRBN-DDB1 protein (setting [4]) was less than 1000 nM; on 6×His-CRBN-DDB1 protein (CRBN IC50, fluorescence polarization, Cy5-O-Len probe), 72 nM; on 6×His-CRBN-DDB1 protein (setting [5]), 54 nM. Also, the Papp in the series on MDCKII-MDR1 cells came out at 4 ×10⁻⁶ cm/s. The Sol. in the series “Aqueous solubility assay” was 64 µM.
As for `O=C1CC[C@H](N2Cc3c(OCc4ccc(CN5CCOCC5)cc4)cccc3C2=O)C(=O)N1` [CC-220, (S)-3-(4-((4-(morpholinomethyl)benzyl)oxy)-1-oxoisoindolin-2-yl)piperidine-2,6-dione], in the series with cells, the “potency in cells relative to lenalidomide” value was 10 fold.
